Experimental data as given in PubChem BioAssay AID1259407 (Chemical Carcinogenesis Research Information System (CCRIS), 2018).
Activity calls are given as the source filed them. No rule for the calls is given here.

System: CCRIS mutagenicity, Ames/micronucleus/aberration tests
Assay: CCRIS mutagenicity studies
Details: Test System: AMES SALMONELLA TYPHIMURIUM

In the case of O=C1C=CC(=O)c2c(O)ccc(O)c21, the mutagenic call (Strain/Indicator: TA97, Metabolic Activation: NONE, Method: PREINCUBATION) is reported as “active; positive”, the mutagenic call (Strain/Indicator: TA97, Metabolic Activation: RAT, LIVER, S-9, PHENOBARBITAL AND 5,6-BENZOFLAVONE, Method: PREINCUBATION) is reported as “active; positive” and the mutagenic call (Strain/Indicator: TA98, Metabolic Activation: NONE, Method: PREINCUBATION) is reported as “inactive; negative”. For the same compound, the mutagenic call (Strain/Indicator: TA98, Metabolic Activation: RAT, LIVER, S-9, PHENOBARBITAL AND 5,6-BENZOFLAVONE, Method: PREINCUBATION) was “inactive; negative”, the mutagenic call (Strain/Indicator: TA100, Metabolic Activation: NONE, Method: PREINCUBATION) was “active; positive” and the mutagenic call (Strain/Indicator: TA100, Metabolic Activation: RAT, LIVER, S-9, PHENOBARBITAL AND 5,6-BENZOFLAVONE, Method: PREINCUBATION) was “active; positive”. The mutagenic call (Strain/Indicator: TA102, Metabolic Activation: NONE, Method: PREINCUBATION) was “active; positive”, the mutagenic call (Strain/Indicator: TA102, Metabolic Activation: RAT, LIVER, S-9, PHENOBARBITAL AND 5,6-BENZOFLAVONE, Method: PREINCUBATION) was “active; positive” and the mutagenic call (Strain/Indicator: TA104, Metabolic Activation: NONE, Method: PREINCUBATION) was “active; positive”. For the same compound, the mutagenic call (Strain/Indicator: TA104, Metabolic Activation: RAT, LIVER, S-9, PHENOBARBITAL AND 5,6-BENZOFLAVONE, Method: PREINCUBATION) was “active; positive”, the mutagenic call (Strain/Indicator: TA1535, Metabolic Activation: NONE, Method: PREINCUBATION) was “inactive; negative” and the mutagenic call (Strain/Indicator: TA1535, Metabolic Activation: RAT, LIVER, S-9, PHENOBARBITAL AND 5,6-BENZOFLAVONE, Method: PREINCUBATION) was “inactive; negative”. The mutagenic call (Strain/Indicator: TA1537, Metabolic Activation: NONE, Method: PREINCUBATION) was “inactive; negative”, the mutagenic call (Strain/Indicator: TA1537, Metabolic Activation: RAT, LIVER, S-9, PHENOBARBITAL AND 5,6-BENZOFLAVONE, Method: PREINCUBATION) was “active; positive” and the mutagenic call (Strain/Indicator: TA1538, Metabolic Activation: NONE, Method: PREINCUBATION) was “inactive; negative”. The mutagenic call (Strain/Indicator: TA1538, Metabolic Activation: RAT, LIVER, S-9, PHENOBARBITAL AND 5,6-BENZOFLAVONE, Method: PREINCUBATION) was “inactive; negative”, the mutagenic call (Strain/Indicator: TA2637, Metabolic Activation: NONE, Method: PREINCUBATION) was “active; positive” and the mutagenic call (Strain/Indicator: TA2637, Metabolic Activation: RAT, LIVER, S-9, PHENOBARBITAL AND 5,6-BENZOFLAVONE, Method: PREINCUBATION) was “active; positive”.
CCCCCCCCCC(=O)N=c1sn(C(=O)CCCCCCCCC)c2ccc([N+](=O)[O-])cc12 was tested, and the mutagenic call (Strain/Indicator: TA100, Metabolic Activation: S-9, Method: STANDARD PLATE) was “active; positive”.
With O=[N+]([O-])c1ccc2c(c1)CCc1cc3c(cc1-2)CCc1ccccc1-3 the mutagenic call (Strain/Indicator: TA98(1,8-DNP6), Metabolic Activation: NONE) was “active; positive”, the mutagenic call (Strain/Indicator: TA98(1,8-DNP6), Metabolic Activation: RAT, LIVER, S-9, AROCLOR 1254) was “active; positive” and the mutagenic call (Strain/Indicator: TA98(NR), Metabolic Activation: NONE) was “active; positive”. For the same compound, the mutagenic call (Strain/Indicator: TA98(NR), Metabolic Activation: RAT, LIVER, S-9, AROCLOR 1254) was “active; positive”, the mutagenic call (Strain/Indicator: TA98, Metabolic Activation: NONE) was “active; positive” and the mutagenic call (Strain/Indicator: TA98, Metabolic Activation: RAT, LIVER, S-9, AROCLOR 1254) was “active; positive”. For the same compound, the mutagenic call (Strain/Indicator: TA100(NR), Metabolic Activation: NONE) was “inactive; negative”, the mutagenic call (Strain/Indicator: TA100(NR), Metabolic Activation: RAT, LIVER, S-9, AROCLOR 1254) was “active; positive” and the mutagenic call (Strain/Indicator: TA100, Metabolic Activation: NONE) was “active; positive”. For the same compound, the mutagenic call (Strain/Indicator: TA100, Metabolic Activation: RAT, LIVER, S-9, AROCLOR 1254) was “active; positive”, the mutagenic call (Strain/Indicator: TA104, Metabolic Activation: NONE) was “active; positive” and the mutagenic call (Strain/Indicator: TA104, Metabolic Activation: RAT, LIVER, S-9, AROCLOR 1254) was “active; positive”.
